Experimental data as given in the SangsterLogP compilation.

Assays:
[1] = method code SF-AS, from DOI: 10.1016/0304-4165(70)90354-5, PMID: 5474547; conditions: pH 7.4
[2] = method code SF-RC, from DOI: 10.1002/jps.2600840617, PMID: 7562417
[3] = method code SF-HPLC, from DOI: 10.1021/jm010289a, PMID: 11754587; conditions: pH 7.0
[4] = method code SF-HPLC, from DOI: 10.1016/j.bmc.2011.10.084, PMID: 22130421; conditions: pH 7.4
[5] = method code SF, from DOI: 10.1021/jm00010a006, PMID: 7752187
[6] = method code SF-AS, from DOI: 10.1002/jps.2600600712, PMID: 4398902
[7] = method code G-HPLC, from DOI: 10.6028/nbs.ir.81-2406
[8] = not given; remark: listed apart in the source
[9] = method code SF-HPLC, from PMID: 1293941
[10] = not given; remark: listed apart in the source
[11] = not given; remark: listed apart in the source
[12] = not given; remark: listed apart in the source
[13] = not given; remark: listed apart in the source
[14] = method code SF, from DOI: 10.1515/bc.2002.085, PMID: 12108546
[15] = not given; remark: listed apart in the source
[16] = not given; remark: listed apart in the source
[17] = not given; remark: listed apart in the source
[18] = method code SF, from DOI: 10.1021/jm00217a007, PMID: 17751; conditions: pH 9.0
[19] = method code …, from Wang, X.; Song, H. (1996). Determination of octanol-water partition coefficients of organic pollutants by using the dynamic coupled-column liquid chromatographic technique. Transactions of Tianjin …
[20] = method code SF-AS, from DOI: 10.1021/es00082a014; conditions: pH 7.0
[21] = method code SF, from DOI: 10.1002/jps.2600620102, PMID: 4566530
[22] = method code SF-AS, from DOI: 10.1002/ps.2780370107; conditions: pH 0.0
[23] = method code SF-AS, from DOI: 10.1021/jm00307a001, PMID: 5637185
[24] = method code SF-POL, from DOI: 10.1111/j.1365-2044.1990.tb14524.x, PMID: 2316851; conditions: pH 7.1
[25] = not given; remark: listed apart in the source
[26] = not given; remark: listed apart in the source
[27] = method code SF-AS, from DOI: 10.1002/chin.198419165, PMID: 6653771; conditions: pH 2.5
[28] = method code SF, from Zheng, Y.; Wu, F.; Li, Y. (2001). Determination of ionization constant and partition coefficient of monoxidine. Journal of Shenyang Pharmaceutical University, 18(1)37-39.
[29] = method code SF-RC, from DOI: 10.1016/0048-3575(88)90037-5
[30] = method code SF, from DOI: 10.1016/0021-9673(91)85016-9; conditions: pH 7.0
[31] = method code SF-GLC, from Hermens, J., & De Bruijn, J. (1987). A QSAR study for fish toxicity data of organophosphorus compounds. QSAR in Drug Design and Toxicology, 10, 343-345.
[32] = method code SF-GLC, from DOI: 10.1007/bf00212402, PMID: 7663085
[33] = method code SF-AS, from DOI: 10.1007/bf01067967, PMID: 3820093; conditions: pH 7.5
[34] = method code SF, from DOI: 10.1248/cpb.33.282, PMID: 4006019; conditions: pH 1.0
[35] = method code SF-GLC, from DOI: 10.1016/0147-6513(82)90020-3, PMID: 7106034
[36] = not given; remark: listed apart in the source
[37] = method code SF-EPR, from DOI: 10.1016/0003-9861(82)90097-2, PMID: 6284047; conditions: pH 7.4
[38] = method code SF-HPLC, from DOI: 10.1248/bpb.16.154, PMID: 8364451
[39] = method code SF-RC, from DOI: 10.1016/0006-2952(75)90159-8, PMID: 1168477
[40] = method code SF-AS, from DOI: 10.1111/j.2042-7158.1984.tb04385.x, PMID: 6145771; conditions: pH 9.2
[41] = method code SF-RC, from DOI: 10.1016/s0969-8051(98)00005-5, PMID: 9720665; conditions: pH 7.0
[42] = method code SF-AS, from DOI: 10.1021/jm00069a002, PMID: 8355246; conditions: pH 7.4
[43] = method code SF, from PMID: 23342302; conditions: pH 7.4
[44] = method code SF-HPLC, from DOI: 10.1124/dmd.30.12.1497, PMID: 12433825; conditions: pH 7.4
[45] = method code SF-AS, from DOI: 10.1002/qsar.19870060104
[46] = from Bundgaard, H.; Hansen, A.; Larsen, C. (1979). Prodrugs as drug delivery systems. VII. Rapid cyclization of methyldiethylthiomalonurate to thiobarbital in aqueous solution. Archiv der Pharmazie - …; conditions: pH 3.5
[47] = not given; remark: listed apart in the source
[48] = not given; remark: listed apart in the source
[49] = method code SF, from DOI: 10.1016/0006-2952(79)90429-5, PMID: 444298

`Cc1cc2ccccc2[nH]1` gave a logD [1] of 2.53.
In the case of `Nc1ccn(C[C@@H](CO)OCP(=O)(O)O)c(=O)n1`, the logP [2] is reported as -3.17.
`CN1C(=O)C(=O)c2ccccc21` showed a logD [3] of 0.63.
`Cc1ncc([N+](=O)[O-])n1Cc1cn(CCF)nn1` gave a logD [4] of -0.38.
Work on `c1ccc(Cn2cnnc2)cc1` yielded a logP [5] of 0.74.
`CC(C)Nc1nc(Cl)nc(NC2CC2)n1` gave a logP of 3.06.
`CCN1CCCCCC1=O` showed a logP [6] of 0.65.
`Cc1ccc(C)c(O)c1C` showed a logP [7] of 2.67.
`CCNc1nc(Cl)nc(NC(C)(C)C#N)n1` gave a logP [8] of 2.18.
With `CCOC(=O)c1ccc(N)cc1` the logP [9] was 1.87.
`CCCCCCCCO` gave a logP [10] of 3.
For `CCOP(=S)(OCC)Oc1nc(Cl)c(Cl)cc1Cl`, the logP [11] was 4.77.
For `NC(N)=Nc1nc(CSCCC(N)=NS(N)(=O)=O)cs1`, the logP [12] was -0.56.
`COc1c(Cl)c(Cl)c(Cl)c(OC)c1OC` gave a logP [13] of 4.8.
`CCCOC(=O)C1(C)CCC=[N+]1[O-]` (stereo not given) gave a logP [14] of -0.3.
`CCOC(=O)c1ccc(O)cc1` showed a logP [15] of 2.25.
`C1COCCOCCOCCO1` gave a logP [16] of -0.04.
`CCOC(=O)c1ccccc1O` gave a logP [17] of 2.23.
`CNC(=S)NCCCCc1c[nH]cn1` showed a logD [18] of 0.51.
Work on `ClC1(Cl)C2(Cl)C3(Cl)C4(Cl)C(Cl)(Cl)C5(Cl)C3(Cl)C1(Cl)C5(Cl)C24Cl` (stereo not given) yielded a logP [19] of 6.69.
`Cc1cc(C)c(N)cc1C` gave a logD [20] of 2.29.
`Cc1cc(C)c2oc(=O)sc2c1` gave a logP [21] of 3.25.
`CCOP(=O)(O)Cc1ccc(Cl)cc1` gave a logD [22] of 1.6.
`C#CC1(O)CCCCC1` gave a logP [23] of 1.73.
In the case of `NC(=S)NN=C1C=CC(=NNC(N)N)C=C1`, the logD [24] is reported as -1.4.
`CC(Oc1ccc(Cl)cc1Cl)C(=O)O` (stereo not given) showed a logP [25] of 3.43.
`CCCCCC(CCO)C1N=N1` (stereo not given) gave a logP [26] of 2.52.
In the case of `N#CCNc1ccccc1C(=O)O`, the logD [27] is reported as 1.75.
`COc1nc(C)nc(Cl)c1NC1=NCCN1` showed a logP [28] of 1.08.
Work on `CC(C)Nc1nc(Cl)nc(NCCO)n1` yielded a logP [29] of 0.78.
In the case of `O=c1ccn2c(n1)OC1C(O)C(CO)OC12` (stereo not given), the logD [30] is reported as -2.85.
Compound `COP(=S)(OC)Oc1ccc(Cl)cc1C#N` has a logP [31] of 3.41.
`ClC1=C(Cl)[C@]2(Cl)C3C(Cl)C(Cl)C(Cl)C3[C@@]1(Cl)C2(Cl)Cl` (stereo not given in full) gave a logP [32] of 6.22.
`CCCc1ccc(N)cc1` gave a logD [33] of 2.4.
With `CCCCCC(=O)N(C)CC(=O)O` the logD [34] was 1.14.
`CCCCOCCOCCSC#N` gave a logP [35] of 1.68.
For `CCCCc1ccncc1`, the logP [36] was 3.13.
`CCC1(C)OCC(C)(C)N1O` (stereo not given) showed a logD [37] of 0.57.
`O=C(O)CNC(=O)c1ccccc1O` showed a logP [38] of 0.95.
With `C=CCN(C(C)=O)C(C)C` the logP [39] was 1.14.
With `CNC(=S)NCCSCc1cncn1C` the logD [40] was 0.32.
Compound `OC1OC2COC(CI)OC2C(O)C1O` (stereo not given) has a logD [41] of 1.1.
Work on `Cc1c(O)c(=O)ccn1C(C)C` yielded a logD [42] of 0.05.
For `Cc1c(COC(CO)CF)[nH]c(=O)[nH]c1=O` (stereo not given), the logD [43] was -0.87.
Work on `CCOc1ccccc1C(N)=O` yielded a logD [44] of 1.34.
Compound `O=c1ccoc2cc(O)ccc12` has a logP [45] of 1.44.
In the case of `CCC(CC)(C(=O)NC(N)=S)C(=O)OC`, the logD [46] is reported as 1.82.
In the case of `COc1cc(O)cc(C(C)=O)c1`, the logP [47] is reported as 1.85.
`CCCOc1ccc(O)cc1` showed a logP [48] of 2.31.
Work on `O=NN(CCCl)C(=O)N[C@@H]1O[C@H](CO)[C@@H](O)[C@H](O)[C@H]1O` yielded a logP [49] of -1.02.
